What was measured:
[1] = Partition coefficient, log P of the compound; assay type: physicochemical; conditions: octanol/water
T47D = test: Cytotoxicity against human T47D cells assessed as growth inhibition at 10 uM after 48 hrs by SRB assay; assay type: functional; conditions: read-out: GI
BT-549 = test: Cytotoxicity against human BT549 cells assessed as growth inhibition at 10 uM after 48 hrs by SRB assay; assay type: functional; conditions: BT-549, 48 h, read-out: GI
MDA-MB-231 = test: Cytotoxicity against human MDA-MB-231 cells assessed as growth inhibition at 10 uM after 48 hrs by SRB assay; assay type: functional; conditions: MDA-MB-231, 48 h, read-out: GI
DU-145 = test: Cytotoxicity against human DU145 cells assessed as growth inhibition at 10 uM after 48 hrs by SRB assay; assay type: functional; conditions: DU-145, 48 h, read-out: GI
MCF7 = test: Cytotoxicity against human MCF7 cells assessed as growth inhibition at 10 uM after 48 hrs by SRB assay; assay type: functional; conditions: MCF7, 48 h, read-out: GI
PC-3 = test: Cytotoxicity against human PC3 cells assessed as growth inhibition at 10 uM after 48 hrs by SRB assay; assay type: functional; conditions: PC-3, 48 h, read-out: GI
UO-31 = test: Cytotoxicity against human UO31 cells assessed as growth inhibition at 10 uM after 48 hrs by SRB assay; assay type: functional; conditions: UO-31, 48 h, read-out: GI
RXF 393 = test: Cytotoxicity against human RXF393 cells assessed as growth inhibition at 10 uM after 48 hrs by SRB assay; assay type: functional; conditions: RXF 393, 48 h, read-out: GI
CAKI-1 = test: Cytotoxicity against human Caki1 cells assessed as growth inhibition at 10 uM after 48 hrs by SRB assay; assay type: functional; conditions: CAKI-1, 48 h, read-out: GI
ACHN = test: Cytotoxicity against human ACHN cells assessed as growth inhibition at 10 uM after 48 hrs by SRB assay; assay type: functional; conditions: read-out: GI
A498 = test: Cytotoxicity against human A498 cells assessed as growth inhibition at 10 uM after 48 hrs by SRB assay; assay type: functional; conditions: A498, 48 h, read-out: GI
786-0 = test: Cytotoxicity against human 786-0 cells assessed as growth inhibition at 10 uM after 48 hrs by SRB assay; assay type: functional; conditions: 786-0, 48 h, read-out: GI
[2] = Cytotoxicity against human NCI-ADR-RES cells assessed as growth inhibition at 10 uM after 48 hrs by SRB assay; assay type: functional; conditions: read-out: GI
OVCAR-8 = test: Cytotoxicity against human OVCAR8 cells assessed as growth inhibition at 10 uM after 48 hrs by SRB assay; assay type: functional; conditions: OVCAR-8, 48 h, read-out: GI
OVCAR-5 = test: Cytotoxicity against human OVCAR5 cells assessed as growth inhibition at 10 uM after 48 hrs by SRB assay; assay type: functional; conditions: OVCAR-5, 48 h, read-out: GI
OVCAR-3 = test: Cytotoxicity against human OVCAR3 cells assessed as growth inhibition at 10 uM after 48 hrs by SRB assay; assay type: functional; conditions: OVCAR-3, 48 h, read-out: GI
IGROV-1 = test: Cytotoxicity against human IGROV1 cells assessed as growth inhibition at 10 uM after 48 hrs by SRB assay; assay type: functional; conditions: IGROV-1, 48 h, read-out: GI
UACC-62 = test: Cytotoxicity against human UACC62 cells assessed as growth inhibition at 10 uM after 48 hrs by SRB assay; assay type: functional; conditions: UACC-62, 48 h, read-out: GI
UACC-257 = test: Cytotoxicity against human UACC257 cells assessed as growth inhibition at 10 uM after 48 hrs by SRB assay; assay type: functional; conditions: UACC-257, 48 h, read-out: GI
SK-MEL-5 = test: Cytotoxicity against human SK-MEL-5 cells assessed as growth inhibition at 10 uM after 48 hrs by SRB assay; assay type: functional; conditions: SK-MEL-5, 48 h, read-out: GI
SK-MEL-28 = test: Cytotoxicity against human SK-MEL-28 cells assessed as growth inhibition at 10 uM after 48 hrs by SRB assay; assay type: functional; conditions: SK-MEL-28, 48 h, read-out: GI
MDA-MB-435 = test: Cytotoxicity against human MDA-MB-435 cells assessed as growth inhibition at 10 uM after 48 hrs by SRB assay; assay type: functional; conditions: MDA-MB-435, 48 h, read-out: GI
M14 = test: Cytotoxicity against human M14 cells assessed as growth inhibition at 10 uM after 48 hrs by SRB assay; assay type: functional; conditions: M14, 48 h, read-out: GI
Malme-3M = test: Cytotoxicity against human MALME-3M cells assessed as growth inhibition at 10 uM after 48 hrs by SRB assay; assay type: functional; conditions: read-out: GI
LOX IMVI = test: Cytotoxicity against human LOXIMVI cells assessed as growth inhibition at 10 uM after 48 hrs by SRB assay; assay type: functional; conditions: read-out: GI
SF-539 = test: Cytotoxicity against human SF539 cells assessed as growth inhibition at 10 uM after 48 hrs by SRB assay; assay type: functional; conditions: SF-539, 48 h, read-out: GI
SF-268 = test: Cytotoxicity against human SF268 cells assessed as growth inhibition at 10 uM after 48 hrs by SRB assay; assay type: functional; conditions: SF-268, 48 h, read-out: GI
HCT-15 = test: Cytotoxicity against human HCT15 cells assessed as growth inhibition at 10 uM after 48 hrs by SRB assay; assay type: functional; conditions: HCT-15, 48 h, read-out: GI
HCT-116 = test: Cytotoxicity against human HCT116 cells assessed as growth inhibition at 10 uM after 48 hrs by SRB assay; assay type: functional; conditions: HCT-116, 48 h, read-out: GI
HCC 2998 = test: Cytotoxicity against human HCC2998 cells assessed as growth inhibition at 10 uM after 48 hrs by SRB assay; assay type: functional; conditions: HCC 2998, 48 h, read-out: GI
COLO 205 = test: Cytotoxicity against human COLO205 cells assessed as growth inhibition at 10 uM after 48 hrs by SRB assay; assay type: functional; conditions: COLO 205, 48 h, read-out: GI
NCI-H226 = test: Cytotoxicity against human NCI-H226 cells assessed as growth inhibition at 10 uM after 48 hrs by SRB assay; assay type: functional; conditions: NCI-H226, 48 h, read-out: GI
HOP-92 = test: Cytotoxicity against human HOP92 cells assessed as growth inhibition at 10 uM after 48 hrs by SRB assay; assay type: functional; conditions: HOP-92, 48 h, read-out: GI
HOP-62 = test: Cytotoxicity against human HOP62 cells assessed as growth inhibition at 10 uM after 48 hrs by SRB assay; assay type: functional; conditions: HOP-62, 48 h, read-out: GI
[3] = Cytotoxicity against human EKVX cells assessed as growth inhibition at 10 uM after 48 hrs by SRB assay; assay type: functional; conditions: read-out: GI
MOLT-4 = test: Cytotoxicity against human MOLT4 cells assessed as growth inhibition at 10 uM after 48 hrs by SRB assay; assay type: functional; conditions: MOLT-4, 48 h, read-out: GI
HL-60(TB) = test: Cytotoxicity against human HL-60(TB) cells assessed as growth inhibition at 10 uM after 48 hrs by SRB assay; assay type: functional; conditions: HL-60, 48 h, read-out: GI

O=C(Nc1ccc(NC2=NS(=O)(=O)c3ccccc32)cc1)Nc1cccc(Br)c1
logP [1]: 2.24
inhibition of growth at 10 µM (T47D): 60%
inhibition of growth at 10 µM (BT-549): 23%
inhibition of growth at 10 µM (MDA-MB-231): 47%
inhibition of growth at 10 µM (DU-145): 19%
inhibition of growth at 10 µM (MCF7): 44%
inhibition of growth at 10 µM (PC-3): 16%
inhibition of growth at 10 µM (UO-31): 13%
inhibition of growth at 10 µM (RXF 393): 35%
inhibition of growth at 10 µM (CAKI-1): 5%
inhibition of growth at 10 µM (ACHN): 3%
inhibition of growth at 10 µM (A498): 21%
inhibition of growth at 10 µM (786-0): 27%
inhibition of growth at 10 µM [2]: 8%
inhibition of growth at 10 µM (OVCAR-8): 17%
inhibition of growth at 10 µM (OVCAR-5): 13%
inhibition of growth at 10 µM (OVCAR-3): 22%
inhibition of growth at 10 µM (IGROV-1): -10%
inhibition of growth at 10 µM (UACC-62): 19%
inhibition of growth at 10 µM (UACC-257): 9%
inhibition of growth at 10 µM (SK-MEL-5): 45%
inhibition of growth at 10 µM (SK-MEL-28): 5%
inhibition of growth at 10 µM (MDA-MB-435): 11%
inhibition of growth at 10 µM (M14): 22%
inhibition of growth at 10 µM (Malme-3M): 17%
inhibition of growth at 10 µM (LOX IMVI): 23%
inhibition of growth at 10 µM (SF-539): 36%
inhibition of growth at 10 µM (SF-268): 23%
inhibition of growth at 10 µM (HCT-15): -6%
inhibition of growth at 10 µM (HCT-116): 22%
inhibition of growth at 10 µM (HCC 2998): 5%
inhibition of growth at 10 µM (COLO 205): -11%
inhibition of growth at 10 µM (NCI-H226): 20%
inhibition of growth at 10 µM (HOP-92): 36%
inhibition of growth at 10 µM (HOP-62): 24%
inhibition of growth at 10 µM [3]: -4%
inhibition of growth at 10 µM (MOLT-4): 37%
inhibition of growth at 10 µM (HL-60(TB)): 1%

Reference: ChEMBL document CHEMBL2331514, “Structure-based design and synthesis of novel pseudosaccharine derivatives as antiproliferative agents and kinase inhibitors” (Eur J Med Chem, 2013)
